Source: patent US20110053916A1 (Vertex Pharmaceuticals Incorporated, priority 2009, published 2011)

Columns and labels:
PknB = target: T1, PknB (Mycobacterium tuberculosis, UniProt P9WI81); experiment: biochemical; design: species or system M. tuberculosis; settings: 3 nM PknB, 6 uM GarA, 3 μM ATP, 30 min; competitive tight-binding fit; several symbols in a cell = repeat determinations; read-out: Ki Values
T1 construct: made in house

[1] = test system: Mycobacterium tuberculosis H37Ra; experiment: Mycobacterium tuberculosis growth inhibition assay (microtiter dilution, resazurin reduction); type: cell-based; settings: 7H9 broth, 9 days + 24 h resazurin, lowest concentration inhibiting resazurin reduction by >70%, several symbols in a cell = repeat determinations
How it was run: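 Resazurin-based microtiter dilution MIC: compounds in 7- or 11-step two-fold series with ~1×10^6 cells/mL H37Ra in 7H9/10% ADC, 9 days at 37 °C, then 24 h with dye. MIC is the lowest concentration giving >70% inhibition of resazurin reduction relative to DMSO controls, by 492/595 nm fluorescence.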

T1 sequence (P9WI81 whole entry): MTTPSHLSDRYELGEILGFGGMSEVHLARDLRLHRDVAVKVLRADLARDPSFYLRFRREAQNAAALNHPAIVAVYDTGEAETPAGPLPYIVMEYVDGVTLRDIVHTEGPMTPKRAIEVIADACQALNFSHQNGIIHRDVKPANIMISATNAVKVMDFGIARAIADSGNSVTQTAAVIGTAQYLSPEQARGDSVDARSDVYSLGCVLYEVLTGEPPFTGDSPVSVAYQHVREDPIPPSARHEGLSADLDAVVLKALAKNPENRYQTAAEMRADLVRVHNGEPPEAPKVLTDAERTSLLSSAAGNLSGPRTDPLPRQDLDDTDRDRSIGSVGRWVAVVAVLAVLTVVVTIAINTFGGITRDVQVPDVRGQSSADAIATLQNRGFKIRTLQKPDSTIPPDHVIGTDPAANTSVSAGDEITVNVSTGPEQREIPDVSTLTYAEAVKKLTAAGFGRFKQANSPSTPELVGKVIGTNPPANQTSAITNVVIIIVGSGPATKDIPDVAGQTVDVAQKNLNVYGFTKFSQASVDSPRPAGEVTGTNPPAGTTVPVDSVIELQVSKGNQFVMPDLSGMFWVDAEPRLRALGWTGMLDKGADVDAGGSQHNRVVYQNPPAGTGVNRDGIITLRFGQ

SMILES	Ki (PknB)	MIC values [1]
CC(C)(C)NS(=O)(=O)c1ccc(-c2ccc(N)c(Nc3cc(C4CC4)n[nH]3)n2)s1 [Compound 273, 5-[5-amino-6-[(5-cyclopropyl-2H-pyrazol-3-yl)amino]-2-pyridyl]-N-tert-butyl-thiophene-2-sulfonamide]	10 to 50 nM	B+
NS(=O)(=O)c1ccc(-c2ccc([N+](=O)[O-])c(Nc3cc(C4CC4)n[nH]3)n2)s1 [Compound 275, 5-[6-[(5-cyclopropyl-2H-pyrazol-3-yl)amino]-5-nitro-2-pyridyl]thiophene-2-sulfonamide]	1 to 10 nM	B++
CNc1cc(Nc2cc(C3CC3)n[nH]2)nc(-c2ccc(S(N)(=O)=O)s2)n1 [Compound 279, 5-[4-[(5-cyclopropyl-2H-pyrazol-3-yl)amino]-6-methylamino-pyrimidin-2-yl]thiophene-2-sulfonamide]	1000 to 2000 nM	B++
NS(=O)(=O)c1ccc(-c2nc(Nc3cc(C4CC4)n[nH]3)cc(N3CCCC3)n2)s1 [Compound 284, 5-[4-[(5-cyclopropyl-2H-pyrazol-3-yl)amino]-6-pyrrolidin-1-yl-pyrimidin-2-yl]thiophene-2-sulfonamide]	100 to 500 nM	B++
COC(=O)NCc1ccc(-c2ncc(Cl)c(Nc3cc(C4CC4)n[nH]3)n2)s1 [Compound 287, methyl [[5-[5-chloro-4-[(5-cyclopropyl-2H-pyrazol-3-yl)amino]-pyrimidin-2-yl]-2-thienyl]methylamino]formate]	10 to 50 nM	B+
NS(=O)(=O)c1ccc(-c2nc(Nc3cc(C4CC4)n[nH]3)cc(N3CCOCC3)n2)s1 [Compound 290, 5-[4-[(5-cyclopropyl-2H-pyrazol-3-yl)amino]-6-morpholino-pyrimidin-2-yl]thiophene-2-sulfonamide]	500 to 1000 nM	B++
COc1cc(Nc2cc(C3CC3)n[nH]2)nc(-c2ccc(S(N)(=O)=O)s2)n1 [Compound 293, 5-[4-[(5-cyclopropyl-2H-pyrazol-3-yl)amino]-6-methoxy-pyrimidin-2-yl]thiophene-2-sulfonamide]	100 to 500 nM	B++
Nc1cc(Nc2cc(C3CC3)n[nH]2)nc(-c2ccc(S(N)(=O)=O)s2)n1 [Compound 294, 5-[4-amino-6-[(5-cyclopropyl-2H-pyrazol-3-yl)amino]-pyrimidin-2-yl]thiophene-2-sulfonamide]	2000 to 4000 nM	B+
CC(C)(C)NS(=O)(=O)c1ccc(-c2nccc(Nc3cc(C4CC4)[nH]n3)n2)cn1 [Compound 300, 5-[4-[(5-cyclopropyl-1H-pyrazol-3-yl)amino]pyrimidin-2-yl]-N-tert-butyl-pyridine-2-sulfonamide]	50 to 100 nM	B+
NS(=O)(=O)c1ccc(-c2nccc(Nc3cc(C4CC4)[nH]n3)n2)cn1 [Compound 301, 5-[4-[(5-cyclopropyl-1H-pyrazol-3-yl)amino]pyrimidin-2-yl]pyridine-2-sulfonamide]	50 to 100 nM	B+
NC(=O)c1ncc(Cl)c(Nc2cc(C3CC3)[nH]n2)n1 [Compound 303, 5-chloro-4-[(5-cyclopropyl-1H-pyrazol-3-yl)amino]-pyrimidine-2-carboxamide]	2000 to 4000 nM	B+
NC(=S)c1ncc(Cl)c(Nc2cc(C3CC3)[nH]n2)n1 [Compound 305, 5-chloro-4-[(5-cyclopropyl-1H-pyrazol-3-yl)amino]-pyrimidine-2-carbothioamide]	500 to 1000 nM	A, B++
O=S(=O)(O)c1ccc(-c2ncc(Cl)c(Nc3cc(C4CC4)[nH]n3)n2)s1 [Compound 306, 5-[5-chloro-4-[(5-cyclopropyl-1H-pyrazol-3-yl)amino]-pyrimidin-2-yl]thiophene-2-sulfonic acid]	10 to 50 nM	B+
O=S(=O)(c1ccc(-c2ncc(Cl)c(Nc3cc(C4CC4)[nH]n3)n2)s1)n1cccc1 [Compound 307, 5-chloro-N-(5-cyclopropyl-1H-pyrazol-3-yl)-2-(5-pyrrol-1-ylsulfonyl-2-thienyl)-pyrimidin-4-amine]	10 to 50 nM	B+
CC(=O)c1ccc(-c2nccc(Nc3cc(C4CC4)[nH]n3)n2)cc1 [Compound 308, 1-[4-[4-[(5-cyclopropyl-1H-pyrazol-3-yl)amino]pyrimidin-2-yl]phenyl]ethanone]	10 to 50 nM	B+
CC(O)c1ccc(-c2nccc(Nc3cc(C4CC4)[nH]n3)n2)cc1 (stereo not drawn) [Compound 312, 1-[4-[4-[(5-cyclopropyl-1H-pyrazol-3-yl)amino]pyrimidin-2-yl]phenyl]ethanol]	10 to 50 nM	B+
CC(=O)OCCc1cnc(-c2ccc(S(N)(=O)=O)s2)nc1Nc1cc(C2CC2)[nH]n1 [Compound 313, 2-(4-(5-cyclopropyl-1H-pyrazol-3-ylamino)-2-(5-sulfamoylthiophen-2-yl)pyrimidin-5-yl)ethyl acetate]	10 to 50 nM	A+
CC(O)c1cccc(-c2nccc(Nc3cc(C4CC4)[nH]n3)n2)c1 (stereo not drawn) [Compound 316, 1-[3-[4-[(5-cyclopropyl-1H-pyrazol-3-yl)amino]pyrimidin-2-yl]phenyl]ethanol]	10 to 50 nM	B+
CC(=O)c1cccc(-c2nccc(Nc3cc(C4CC4)[nH]n3)n2)c1 [Compound 317, 1-[3-[4-[(5-cyclopropyl-1H-pyrazol-3-yl)amino]pyrimidin-2-yl]phenyl]ethanone]	10 to 50 nM	B+
Cc1cc(-c2ccc(S(N)(=O)=O)s2)nc(Nc2cc(C3CC3)n[nH]2)n1 [Compound 322, 5-[2-[(5-cyclopropyl-2H-pyrazol-3-yl)amino]-6-methyl-pyrimidin-4-yl]thiophene-2-sulfonamide]	1 to 10 nM	B++
NS(=O)(=O)c1ccc(-c2nccc(Nc3cc(C4CC4)[nH]n3)n2)cc1 [Compound 323, 4-[4-[(5-cyclopropyl-1H-pyrazol-3-yl)amino]pyrimidin-2-yl]benzenesulfonamide]	10 to 50 nM	B++
